# Assay results as given in patent US7871790B2 (priority 2004, dated 2011).
# Residues, ends and D or L forms follow the SMILES beside them. *: point of attachment. Cbz = O=C(OCc1ccccc1)*; CH2F = FC*
# Experiments:
# ICE (caspase-1) = target: T1, ICE (caspase-1) (Mus musculus, UniProt P29452)
# T1 sequence (P29452 119-296 limits assumed): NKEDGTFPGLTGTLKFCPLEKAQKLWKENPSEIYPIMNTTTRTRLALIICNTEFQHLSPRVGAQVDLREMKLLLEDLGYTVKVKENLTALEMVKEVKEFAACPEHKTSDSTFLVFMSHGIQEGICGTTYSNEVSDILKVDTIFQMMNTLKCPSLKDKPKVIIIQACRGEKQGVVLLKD
# T1 sequence (P29452 315-402 limits assumed): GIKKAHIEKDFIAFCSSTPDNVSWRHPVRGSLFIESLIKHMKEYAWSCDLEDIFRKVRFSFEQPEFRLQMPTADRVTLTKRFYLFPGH
# [1] = system: RAW 264.7 murine macrophage cell line; format: cell-based; conditions: 24 h
Molecule,Effect on cell viability (ICE (caspase-1)),Blocking of IL-1β production induced by anthrax LT (ICE (caspase-1); 24 hours) [%],Blocking of IL-18 production induced by anthrax LT (ICE (caspase-1); 24 hours) [%],Dose needed for induction of IL-1β comparable to that resulting from anthrax LT treatment [1] [EU/ml],Induction of IL-18 [1]
COC(=O)CC[C@H](NC(=O)[C@H](Cc1c[nH]c2ccccc12)NC(=O)OCc1ccccc1)C(=O)N[C@@H](Cc1cnc[nH]1)C(=O)N[C@@H](CC(=O)OC)C(=O)CF [Z-WEHD-FMK] (Cbz-WE(OMe)HD(OMe)-CH2F),no observable effect,~70,~70,,
lipopolysaccharide [LPS],,,,≥ 100,not induced
